From ChEMBL document CHEMBL1155072, “Urotensin-II receptor antagonists: synthesis and SAR of N-cyclic azaalkyl benzamides” (Bioorg Med Chem Lett, 2008) come the findings set out here.

The target in experiment [1] is T1, Urotensin-2 receptor (Homo sapiens, UniProt Q9UKP6).
T1 sequence (Q9UKP6 whole entry): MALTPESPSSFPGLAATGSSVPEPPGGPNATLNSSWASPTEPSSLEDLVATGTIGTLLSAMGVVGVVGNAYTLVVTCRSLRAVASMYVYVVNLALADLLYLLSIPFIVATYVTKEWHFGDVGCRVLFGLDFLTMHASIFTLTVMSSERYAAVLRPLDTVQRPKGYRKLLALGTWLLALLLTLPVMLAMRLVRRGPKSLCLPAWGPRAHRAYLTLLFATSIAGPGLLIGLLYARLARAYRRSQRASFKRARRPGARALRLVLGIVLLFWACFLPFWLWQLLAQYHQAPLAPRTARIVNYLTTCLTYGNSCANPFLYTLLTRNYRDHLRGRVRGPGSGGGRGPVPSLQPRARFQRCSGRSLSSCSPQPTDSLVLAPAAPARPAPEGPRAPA
Nature of the experiment: Displacement of [I125]hU2 from human recombinant urotensin 2 receptor expressed in HEK293 cells. It counts as cell-based.

Experiment [2] concerns the target T1, Urotensin-2 receptor. The experiment in a line: Antagonist activity at human recombinant urotensin 2 receptor expressed in HEK293 cells assessed as inhibition of urotensin 2-induced calcium mobilization by FLIPR assay. It counts as functional, cell-based. In general terms: Calcium assays in cells follow changes in intracellular calcium, usually with a dye or a luminescent sensor.

The next experiment addresses D(2) dopamine receptor (Homo sapiens, UniProt P14416). The experiment in a line: Binding affinity to dopamine D2 receptor.
The target in experiment [3] is 5-hydroxytryptamine receptor 1E (Homo sapiens, UniProt P28566). The experiment in a line: Binding affinity to 5HT1E receptor.
Experiment [4] has as its target 5-hydroxytryptamine receptor 6 (Homo sapiens, UniProt P50406). Nature of the experiment: Binding affinity to 5HT6 receptor.
The target of another experiment is Cytochrome P450 2D6 (Homo sapiens, UniProt P10635). Nature of the experiment: Inhibition of CYP2D6. It counts as ADME.
Experiment [5] deals with Beta-2 adrenergic receptor (Homo sapiens, UniProt P07550). The experiment in a line: Binding affinity to beta 2 adrenergic receptor.
Experiment [6] addresses T2, 5-hydroxytryptamine receptor 2C (Homo sapiens, UniProt P28335).
T2 sequence (P28335 whole entry): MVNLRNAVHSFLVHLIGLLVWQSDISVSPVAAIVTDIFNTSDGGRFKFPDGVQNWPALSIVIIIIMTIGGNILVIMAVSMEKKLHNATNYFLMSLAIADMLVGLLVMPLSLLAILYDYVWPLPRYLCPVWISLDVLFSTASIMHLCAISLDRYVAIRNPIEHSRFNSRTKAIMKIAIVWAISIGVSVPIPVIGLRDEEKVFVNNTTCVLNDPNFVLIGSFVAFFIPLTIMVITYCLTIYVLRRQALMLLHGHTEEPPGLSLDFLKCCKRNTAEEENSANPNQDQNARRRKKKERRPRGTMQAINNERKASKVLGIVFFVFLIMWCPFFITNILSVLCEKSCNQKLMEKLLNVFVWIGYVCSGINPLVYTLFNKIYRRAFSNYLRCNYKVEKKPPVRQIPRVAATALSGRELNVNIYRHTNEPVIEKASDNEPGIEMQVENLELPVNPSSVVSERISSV
The experiment in a line: Binding affinity at 5HT2C receptor.

Experiment [7] concerns the target 5-hydroxytryptamine receptor 1D (Homo sapiens, UniProt P28221). Nature of the experiment: Binding affinity to 5HT1D receptor.
Experiment [8] deals with T3, 5-hydroxytryptamine receptor 1F (Homo sapiens, UniProt P30939).
T3 sequence (P30939 whole entry): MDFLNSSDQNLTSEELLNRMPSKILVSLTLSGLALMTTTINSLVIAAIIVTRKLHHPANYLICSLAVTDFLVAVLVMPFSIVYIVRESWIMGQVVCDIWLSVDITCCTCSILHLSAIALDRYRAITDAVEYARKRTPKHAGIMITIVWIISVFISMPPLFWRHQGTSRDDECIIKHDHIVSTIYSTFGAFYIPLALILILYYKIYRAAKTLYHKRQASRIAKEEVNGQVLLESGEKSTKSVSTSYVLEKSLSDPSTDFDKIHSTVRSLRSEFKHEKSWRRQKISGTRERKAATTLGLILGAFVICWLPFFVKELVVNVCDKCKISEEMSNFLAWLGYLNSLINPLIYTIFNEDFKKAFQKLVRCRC
Nature of the experiment: Binding affinity to 5HT1F receptor.

Experiment [9] deals with T4, 5-hydroxytryptamine receptor 1A (Homo sapiens, UniProt P08908).
T4 sequence (P08908 whole entry): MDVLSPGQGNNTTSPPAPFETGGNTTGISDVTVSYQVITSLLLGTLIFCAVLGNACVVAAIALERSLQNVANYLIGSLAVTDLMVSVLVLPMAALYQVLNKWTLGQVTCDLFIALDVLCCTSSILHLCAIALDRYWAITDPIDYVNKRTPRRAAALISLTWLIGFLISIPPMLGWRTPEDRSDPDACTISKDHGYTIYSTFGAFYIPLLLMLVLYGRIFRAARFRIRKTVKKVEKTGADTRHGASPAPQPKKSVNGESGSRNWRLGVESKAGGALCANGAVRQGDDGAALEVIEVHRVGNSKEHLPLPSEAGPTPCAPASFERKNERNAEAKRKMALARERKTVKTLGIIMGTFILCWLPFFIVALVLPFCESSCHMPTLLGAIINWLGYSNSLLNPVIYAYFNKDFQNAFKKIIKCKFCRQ
Nature of the experiment: Binding affinity to 5HT1A receptor.

Experiment [10] concerns the target Cytochrome P450 3A4 (Homo sapiens) (UniProt P08684). The experiment in a line: Inhibition of CYP3A4.
For experiment [11], the target named is 5-hydroxytryptamine receptor 2B (Homo sapiens, UniProt P41595). Nature of the experiment: Binding affinity at 5HT2B receptor.

Bounds are passed on as bounds.

D(2) dopamine receptor, sequence (P14416 whole entry): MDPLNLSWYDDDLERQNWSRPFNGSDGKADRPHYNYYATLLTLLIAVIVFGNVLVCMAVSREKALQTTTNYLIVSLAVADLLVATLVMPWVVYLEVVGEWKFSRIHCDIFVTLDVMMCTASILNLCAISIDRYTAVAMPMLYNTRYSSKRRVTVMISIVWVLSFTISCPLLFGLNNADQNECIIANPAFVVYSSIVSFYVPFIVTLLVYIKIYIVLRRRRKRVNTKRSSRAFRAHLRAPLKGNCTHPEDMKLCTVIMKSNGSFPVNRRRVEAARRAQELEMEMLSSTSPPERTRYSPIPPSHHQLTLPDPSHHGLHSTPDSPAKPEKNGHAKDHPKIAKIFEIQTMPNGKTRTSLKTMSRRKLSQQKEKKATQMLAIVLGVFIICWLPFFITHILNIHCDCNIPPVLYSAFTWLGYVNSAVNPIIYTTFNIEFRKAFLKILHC
Beta-2 adrenergic receptor, sequence (P07550 whole entry): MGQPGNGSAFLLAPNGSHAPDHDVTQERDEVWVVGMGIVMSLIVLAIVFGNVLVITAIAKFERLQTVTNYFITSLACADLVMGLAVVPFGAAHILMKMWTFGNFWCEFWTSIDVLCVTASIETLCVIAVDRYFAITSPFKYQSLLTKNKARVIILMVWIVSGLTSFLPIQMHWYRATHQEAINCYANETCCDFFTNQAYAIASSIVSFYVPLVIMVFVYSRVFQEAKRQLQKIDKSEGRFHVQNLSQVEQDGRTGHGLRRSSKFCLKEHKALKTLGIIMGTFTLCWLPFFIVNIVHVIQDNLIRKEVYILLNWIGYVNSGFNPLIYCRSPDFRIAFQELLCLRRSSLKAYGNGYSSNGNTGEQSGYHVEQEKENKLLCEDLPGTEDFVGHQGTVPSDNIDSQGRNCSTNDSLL
5-hydroxytryptamine receptor 2B, sequence (P41595 whole entry): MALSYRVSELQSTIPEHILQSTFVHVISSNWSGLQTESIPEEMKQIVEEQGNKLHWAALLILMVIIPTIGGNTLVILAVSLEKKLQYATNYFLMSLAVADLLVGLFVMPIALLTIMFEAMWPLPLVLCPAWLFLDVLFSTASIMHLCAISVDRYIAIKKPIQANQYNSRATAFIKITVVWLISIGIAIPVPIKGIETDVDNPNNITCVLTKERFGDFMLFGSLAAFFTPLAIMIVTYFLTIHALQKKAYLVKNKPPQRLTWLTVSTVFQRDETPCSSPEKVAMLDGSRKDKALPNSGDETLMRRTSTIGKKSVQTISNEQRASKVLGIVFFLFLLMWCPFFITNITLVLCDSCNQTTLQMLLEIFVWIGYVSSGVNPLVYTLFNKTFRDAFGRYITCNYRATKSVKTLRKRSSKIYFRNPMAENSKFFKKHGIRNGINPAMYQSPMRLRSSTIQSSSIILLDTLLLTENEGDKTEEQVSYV
5-hydroxytryptamine receptor 1D, sequence (P28221 whole entry): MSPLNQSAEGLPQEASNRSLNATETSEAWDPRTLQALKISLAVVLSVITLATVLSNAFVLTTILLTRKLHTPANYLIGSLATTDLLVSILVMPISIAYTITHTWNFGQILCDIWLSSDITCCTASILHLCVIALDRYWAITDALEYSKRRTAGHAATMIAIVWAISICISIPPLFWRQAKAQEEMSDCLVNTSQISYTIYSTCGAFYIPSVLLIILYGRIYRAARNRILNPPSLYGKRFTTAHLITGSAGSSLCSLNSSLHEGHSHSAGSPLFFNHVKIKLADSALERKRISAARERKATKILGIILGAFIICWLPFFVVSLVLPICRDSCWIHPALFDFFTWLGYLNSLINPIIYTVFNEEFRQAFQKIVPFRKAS
5-hydroxytryptamine receptor 1E, sequence (P28566 whole entry): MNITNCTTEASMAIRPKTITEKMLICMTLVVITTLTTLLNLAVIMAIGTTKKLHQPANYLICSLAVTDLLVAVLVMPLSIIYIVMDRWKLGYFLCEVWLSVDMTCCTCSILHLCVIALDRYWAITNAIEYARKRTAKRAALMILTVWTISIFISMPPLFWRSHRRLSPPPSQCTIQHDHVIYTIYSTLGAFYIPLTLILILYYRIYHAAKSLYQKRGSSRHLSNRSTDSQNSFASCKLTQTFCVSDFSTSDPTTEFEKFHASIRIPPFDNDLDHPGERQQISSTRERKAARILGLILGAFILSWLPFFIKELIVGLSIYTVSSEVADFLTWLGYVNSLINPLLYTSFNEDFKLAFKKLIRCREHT
Cytochrome P450 2D6, sequence (P10635 whole entry): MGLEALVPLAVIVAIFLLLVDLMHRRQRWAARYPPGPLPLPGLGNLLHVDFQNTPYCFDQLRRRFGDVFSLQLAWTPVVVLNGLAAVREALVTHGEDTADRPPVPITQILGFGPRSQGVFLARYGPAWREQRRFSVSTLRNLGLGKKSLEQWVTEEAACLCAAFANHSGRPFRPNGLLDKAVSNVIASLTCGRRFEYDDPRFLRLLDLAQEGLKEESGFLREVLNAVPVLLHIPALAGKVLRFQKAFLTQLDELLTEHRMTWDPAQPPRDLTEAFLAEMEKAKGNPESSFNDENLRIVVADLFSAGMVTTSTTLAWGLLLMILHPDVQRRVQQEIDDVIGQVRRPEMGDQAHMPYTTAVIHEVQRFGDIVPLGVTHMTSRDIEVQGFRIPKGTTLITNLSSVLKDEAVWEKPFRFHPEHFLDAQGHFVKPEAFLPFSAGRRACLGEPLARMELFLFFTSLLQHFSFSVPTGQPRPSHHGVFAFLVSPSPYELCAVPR
5-hydroxytryptamine receptor 6, sequence (P50406 whole entry): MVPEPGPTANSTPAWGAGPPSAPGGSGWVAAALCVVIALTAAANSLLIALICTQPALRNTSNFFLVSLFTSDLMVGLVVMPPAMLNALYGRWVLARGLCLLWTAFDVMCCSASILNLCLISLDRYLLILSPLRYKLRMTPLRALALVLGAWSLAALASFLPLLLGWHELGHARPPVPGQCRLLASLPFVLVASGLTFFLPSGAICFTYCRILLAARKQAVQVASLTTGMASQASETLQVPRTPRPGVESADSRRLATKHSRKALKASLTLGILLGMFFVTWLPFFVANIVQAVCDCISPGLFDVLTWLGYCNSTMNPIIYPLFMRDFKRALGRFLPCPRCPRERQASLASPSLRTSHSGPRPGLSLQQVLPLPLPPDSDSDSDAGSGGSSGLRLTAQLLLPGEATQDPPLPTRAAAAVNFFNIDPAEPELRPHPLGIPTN
Cytochrome P450 3A4 (Homo sapiens), sequence (P08684 whole entry, looked up): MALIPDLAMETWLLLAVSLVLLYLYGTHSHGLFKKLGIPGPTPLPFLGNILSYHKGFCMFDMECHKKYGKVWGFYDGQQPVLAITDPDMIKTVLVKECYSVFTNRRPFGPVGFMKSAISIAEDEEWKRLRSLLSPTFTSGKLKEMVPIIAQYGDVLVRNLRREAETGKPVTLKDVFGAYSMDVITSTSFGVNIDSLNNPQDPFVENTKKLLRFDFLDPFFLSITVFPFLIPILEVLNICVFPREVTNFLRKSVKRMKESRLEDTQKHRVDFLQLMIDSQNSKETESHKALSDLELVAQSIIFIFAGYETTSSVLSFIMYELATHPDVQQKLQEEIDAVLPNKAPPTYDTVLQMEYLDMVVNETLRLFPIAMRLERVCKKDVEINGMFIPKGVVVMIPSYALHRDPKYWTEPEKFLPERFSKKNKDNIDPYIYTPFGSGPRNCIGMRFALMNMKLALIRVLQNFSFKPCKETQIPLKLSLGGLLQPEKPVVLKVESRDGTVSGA

In the case of `CC(C)C[C@H](NC(=O)c1cc2ccccc2s1)C(=O)N[C@H]1CCN(Cc2ccc(OCCCN(C)C)cc2)C1`, the inhibition constant (Ki) at Urotensin-2 receptor [1] turned out to be 0.11 µM.
Same read-out and setting: in the case of `CN(C)CCCOc1ccc(CN2CC[C@H](NC(=O)c3ccc(Br)cc3)C2)cc1` it was 0.32 µM.
Turning to `CN(C)CCCOc1ccc(CN2CC[C@H](NC(=O)c3ccc(Cl)c(Cl)c3)C2)cc1`, on Urotensin-2 receptor [2], the IC50 came out at 0.17 µM.
With `CC(C)C[C@H](NC(=O)c1cc2ccccc2s1)C(=O)N[C@H]1CCN(Cc2ccc(OC3CCNCC3)c(Br)c2)C1`, the inhibitory constant (Ki) on Urotensin-2 receptor [1] is 0.003 µM.
Same read-out and setting: in the case of `CN(C)CCCOc1cccc(CN2CC[C@H](NC(=O)c3ccc(Cl)c(Cl)c3)C2)c1` it was more than 3 µM.
On the same count and under the same terms, to `CN(C)CCCOc1ccccc1CN1CC[C@H](NC(=O)c2ccc(Cl)c(Cl)c2)C1` belongs more than 10 µM; to `O=C(N[C@H]1CCN(Cc2ccc(OC3CCN(Cc4ccccc4)CC3)c(Br)c2)C1)c1ccc(Cl)c(Cl)c1`, 0.23 µM.
Same read-out and setting: in the case of `O=C(N[C@H]1CCN(CCc2ccc(OC3CCNCC3)c(Br)c2)C1)c1ccc(Cl)c(Cl)c1` it was 0.01 µM; in that of `O=C(N[C@H]1CCN(CCc2ccc(OC3CCNCC3)cc2)C1)c1ccc(Cl)c(Cl)c1`, 0.042 µM; in that of `CN(C)CCCOc1ccc(CN2CC[C@@H](NC(=O)c3ccc(Br)cc3)C2)cc1`, 0.35 µM.
On to `CN(C)CCCOc1ccc(CN2CC[C@H](NC(=O)c3ccc(Cl)c(Cl)c3)C2)cc1Br`, for which the inhibitory constant (Ki) on Urotensin-2 receptor [1] stood at 0.061 µM.
Same read-out and setting: in the case of `O=C(N[C@H]1CCN(Cc2ccc(OCCN3CCCC3)c(Br)c2)C1)c1ccc(Cl)c(Cl)c1` it was 1 µM; in that of `CN(C)CCCOc1ccc(CN2CCC(NC(=O)c3ccc(Cl)c(Cl)c3)CC2)cc1`, 0.5 µM; in that of `CN(C)CCCOc1ccc(CN(C)CCCNC(=O)c2ccc(Cl)c(Cl)c2)cc1`, more than 10 µM.
On the same count and under the same terms, to `O=C(N[C@H]1CCN(CCc2ccc(OC3CCNCC3)c(F)c2)C1)c1ccc(Cl)c(Cl)c1` belongs 0.062 µM.
Same read-out and setting: in the case of `O=C(N[C@@H]1CCN(S(=O)(=O)c2ccc(OC3CCNCC3)c(Br)c2)C1)c1ccc(Cl)c(Cl)c1` it was 0.38 µM; in that of `O=C(N[C@H]1CCN(CCc2ccc(OC3CCNCC3)c([N+](=O)[O-])c2)C1)c1ccc(Cl)c(Cl)c1`, 0.069 µM; in that of `O=C(N[C@H]1CCN(Cc2ccc(OCCN3CCOCC3)c(Br)c2)C1)c1ccc(Cl)c(Cl)c1`, 3.5 µM.
As to `O=C(N[C@H]1CCN(Cc2ccc(OCCN3CCNCC3)c(Br)c2)C1)c1ccc(Cl)c(Cl)c1`, the Ki at Urotensin-2 receptor [1] was 1.5 µM.
Still for that read-out and setting: to `O=C(N[C@H]1CCN(Cc2ccc(O[C@@H]3CCNC3)c(Br)c2)C1)c1ccc(Cl)c(Cl)c1` belongs 0.0055 µM; to `O=C(NC1CCN(S(=O)(=O)c2ccc(OC3CCNCC3)c(Br)c2)CC1)c1ccc(Cl)c(Cl)c1`, 0.14 µM.
With `O=C(N[C@H]1CCN(Cc2ccc(OC3CCNCC3)c(Br)c2)C1)c1ccc(Cl)c(Cl)c1`, the IC50 is 0.004 µM at Urotensin-2 receptor [2], 2.2 µM against Cytochrome P450 2D6 and 1.9 µM in [10]. The inhibitory constant (Ki) is 0.004 µM at Urotensin-2 receptor [1]; 0.1 µM at D(2) dopamine receptor; more than 10 µM in [3]; 4.1 µM in [4]; more than 10 µM in [5]; 0.085 µM in [6]. Also, the Ki was 0.14 µM in experiment [7], 7.2 µM in experiment [8], 0.038 µM in experiment [9] and 0.14 µM in experiment [11].
In the case of `CC(C)C[C@H](NC(=O)c1cc2ccccc2s1)C(=O)N[C@H]1CCN(S(=O)(=O)c2ccc(OC3CCNCC3)c(Br)c2)C1`, the Ki at Urotensin-2 receptor [1] was determined as 0.012 µM.
The same measure, in the same setting: in the case of `O=C(N[C@H]1CCN(Cc2ccc(O[C@H]3CCNC3)c(Br)c2)C1)c1ccc(Cl)c(Cl)c1` it was 0.044 µM.
The same measure, in the same setting: to `CC(C)C[C@H](NC(=O)c1cc2ccccc2s1)C(=O)N[C@H]1CCN(CCc2ccc(O[C@@H]3CCNC3)c(Br)c2)C1` belongs 0.018 µM; to `O=C(N[C@H]1CCN(S(=O)(=O)c2ccc(OC3CCNCC3)c(Br)c2)C1)c1ccc(Cl)c(Cl)c1`, 0.12 µM.
Same read-out and setting: to `CN(C)CCCOc1ccc(CN2CCN(C(=O)c3ccc(Cl)c(Cl)c3)CC2)cc1` belongs more than 10 µM; to `COc1cc(CCN2CC[C@H](NC(=O)c3ccc(Cl)c(Cl)c3)C2)ccc1OC1CCNCC1`, 0.036 µM.
For the molecule `O=C(N[C@H]1CCN(CCc2ccc(OC3CCNCC3)c(Cl)c2)C1)c1ccc(Cl)c(Cl)c1`, the Ki at Urotensin-2 receptor [1] was determined as 0.015 µM.
Same read-out and setting: to `CN1CCC(Oc2ccc(CN3CC[C@H](NC(=O)c4ccc(Cl)c(Cl)c4)C3)cc2Cl)C1` (mixture of isomers) belongs 0.047 µM; to `Cc1cc(CN2CC[C@H](NC(=O)c3ccc(Cl)c(Cl)c3)C2)ccc1OC1CCN(C)C1` (mixture of isomers), 0.108 µM.
Still for that read-out and setting: to `CN1CCC(Oc2ccc(CN3CCC(NC(=O)c4ccc(Cl)c(Cl)c4)C3)cc2Br)C1` (racemic) belongs 0.041 µM; to `CN1CCC(Oc2ccc(CN3CCC(NC(=O)c4ccc(Cl)c(Cl)c4)C3)cc2)C1` (racemic), 0.097 µM; to `O=C(NC1CCCCN(S(=O)(=O)c2ccc(OC3CCNCC3)c(Br)c2)C1)c1ccc(Cl)c(Cl)c1` (racemic), 0.071 µM.

In general, Ki refers to a measure of affinity in units of concentration, obtained from inhibition or displacement. The IC50 is the concentration that gives 50% inhibition.
